{
  "source": "patent US10766888B1",
  "about": "“HMOX1 inducers” (Mitobridge Inc., priority 2019, dated 2020)",
  "test_system": "VCAM-1",
  "assay": "Gene expression (VCAM-1) in primary human endothelial cells stimulated with TNFa",
  "assay_type": "cell-based",
  "settings": "HPAEC",
  "procedure": "Example 150. Gene Expression in Primary Human Endothelial Cells\nInflammatory conditions in endothelial cells increase expression of adhesion molecules, such as VCAM-1, ICAM-1 and E-selectin through NF-kB signaling. HMOX1−/− endothelial cells show increased expression of VCAM-1 in response to TNF stimulation, as compared to HMOX+/+endothelial cells. See Seldon et al., J Immunol Dec. 1, 2007, 179 (11) 7840-7851.\nPrimary human pulmonary artery endothelial cells (HPAEC) (Lonza # CC-2530) were seeded in 12-well plates (TrueLine # TR5001) at 200 k cells per well and placed at 37° C. in 5% CO2. 18-24 hr post seeding, cells were treated with the compound of Example 17 via media change. 24 hr post treatment with the compound, cells were treated with 10 ng/mL TNFa (Invitrogen # PHC3015 in H2O) alone or with the compound of Example 17. […] 20 ng cDNA was mixed with water, iQ™ SYBR® Green Supermix (BioRad #170-8886), and 300 nM primer (IDT # NM_001078) for a total 10 ul reaction and loaded into 384-well white qPCR plates and subsequently analyzed using BioRad CFX384. […] To calculate fold change, the ΔCt on a per sample basis was calculated as Ct (Gene of interest)−Ct (Average of reference genes). The ΔΔCt was then calculated as ΔCt (experimental sample)−Average ΔCt (control group). Fold change was calculated as 2^−ΔΔCT.",
  "data": [
    {"smiles": "Cn1c(Nc2nc3ccccc3o2)nc2cc(C(=O)NCCOCCO)ccc21", "note": "[Example 17, 2-(benzo[d]oxazol-2-ylamino)-N-(2-(2-hydroxyethoxy)ethyl)-1-methyl-1H-benzo[d]imidazole-5-carboxamide]", "values": [
      {"measurement": "TNF-α mediated endothelial cell activation / VCAM-1 expression (in words)", "setting": "24 hr pre-treatment, 10 ng/mL TNFa 4 hours", "result": "reduced this TNF-α mediated endothelial cell activation"},
      {"measurement": "toxicity by visual inspection of cells", "setting": "after 4 hours of TNFa treatment", "result": "no toxicity"}
    ]}
  ]
}
